Data: PubChem BioAssay (NCI)
Where “and” joins values, the source holds several entries; their conditions need not be identical. Equal values may be shown once.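 Where inhibition never reached the appropriate level, the endpoint shown equals the highest concentration tested. Otherwise, values were interpolated linearly from a five-concentration, 48-hour dose response in 96-well plates. GI50: concentration for 50% inhibition of growth. TGI is the concentration that stops growth completely.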

How the values were obtained:
Assay in all cases: growth of human tumour cells (NCI), 48 h
COLO 205 colon = system: COLO 205 colon
IGROV1 ovarian = system: IGROV1 ovarian
K-562 leukemia = system: K-562 leukemia
NCI-H522 lung = system: NCI-H522 lung
OVCAR-8 ovarian = system: OVCAR-8 ovarian
SF-295 CNS = system: SF-295 CNS
SNB-75 CNS = system: SNB-75 CNS
SW-620 colon = system: SW-620 colon
U251 CNS = system: U251 CNS
UO-31 renal = system: UO-31 renal

Compound | TGI (COLO 205 colon) [µM] | TGI (IGROV1 ovarian) [µM] | TGI (K-562 leukemia) [µM] | TGI (NCI-H522 lung) [µM] | TGI (OVCAR-8 ovarian) [µM] | TGI (SF-295 CNS) | TGI (SNB-75 CNS) [µM] | TGI (SW-620 colon) | TGI (U251 CNS) [µM] | TGI (UO-31 renal) | GI50 (COLO 205 colon) [µM] | GI50 (K-562 leukemia) [µM] | GI50 (NCI-H522 lung) [µM] | GI50 (OVCAR-8 ovarian) [µM] | GI50 (SF-295 CNS) [µM] | GI50 (SNB-75 CNS) [µM] | GI50 (SW-620 colon) [µM] | GI50 (U251 CNS) [µM] | GI50 (UO-31 renal) [µM] | GI50 (IGROV1 ovarian) [µM]
Cc1cc(=O)oc2c(C3=NN(C=O)C(c4ccccc4)C3)c(O)ccc12 (stereo not given) | > 81.1 | > 100 | > 100 | > 93.6 | > 100 | > 31.1 µM | 17.2 | > 100 µM | > 100 | > 100 µM | – | – | – | – | – | – | – | – | – | –
COc1ccc(-n2cc(-c3cc(OC)c(OC)c(OC)c3)nc2SCc2ccc(Cl)cc2)cc1OC | > 100 | – | > 100 | > 100 | > 100 | > 100 µM | > 100 | > 100 µM | > 100 | > 100 µM | > 100 | 87.5 | 41.2 | > 100 | > 100 | 9.82 | > 100 | > 100 | 27.8 | –
O=CC(OC(=O)c1ccccc1)C(OC(=O)c1ccccc1)C(COC(c1ccccc1)(c1ccccc1)c1ccccc1)OC(=O)c1ccccc1 (stereo not given) | 25.4 | 37.7 | 27.4 | 18.7 | 54.1 | 73.5 µM | 22.9 | 20.7 µM | 20.2 | 31.2 µM | 11.8 | 8.09 | 4.72 | 4.76 | 23.8 | 10.2 | 5.13 | 7.51 | 10.8 | 12.4
Oc1ccc(NC(=S)Nc2ccccc2)cc1 | > 100 | > 100 | > 100 | > 100 | > 100 | > 100 µM | > 100 | > 100 µM | > 100 | > 100 µM | > 100 | > 100 | > 100 | > 100 | > 100 | > 100 | > 100 | > 100 | > 100 | > 100
CCN(C(=O)N1CCN(c2cc3c(cc2F)c(=O)c(C(=O)O)cn3C2CC2)CC1)c1nc(-c2ccccc2)cs1 | 7.1 | > 100 | > 100 | 7.61 | > 100 | 8.51 µM | 16.4 | > 100 µM | 22.9 | > 100 µM | 2.58 | 3.2 | 2.01 | 3.33 | 2.24 | 3.66 | 3.93 | 3.25 | 2.31 | 3.12
CCN(CC)CCNc1c2ccccc2nc2cccc([N+](=O)[O-])c12 | 0.0176 | 0.0267 | 0.121 | 0.0132 | 0.0382 | 0.0342 µM and 0.0643 µM | 0.0347 | 0.0395 µM and 0.172 µM | 0.0775 | 0.0412 µM and 0.252 µM | – | – | – | – | 0.015 | – | – | – | 0.0712 | –
C=CC(=O)N[C@@H]1CN(c2nc(Nc3cn(C)nc3OC)c3ncn(C)c3n2)C[C@H]1F | 48.6 | > 72.6 | > 100 | 17.7 | > 100 | > 100 µM | > 78 | > 100 µM | > 100 | > 100 µM | 17.6 | 42.9 | 0.0335 | 33.6 | 38.9 | 19.4 | 26.9 | 39.1 | 10.9 | 2.61
CC(=O)OCCOCn1c2ccccc2c2c3c(c4c5ccccc5n(COCCOC(C)=O)c4c21)C(=O)N(Cc1ccccc1)C3=O | > 100 | > 100 | > 100 | – | > 100 | – | > 100 | > 100 µM | > 100 | > 100 µM | – | – | – | – | – | – | – | – | – | –
C#CCN(N=O)C(=O)NC(CCCCNC(=O)OCc1ccccc1)C(=O)OCc1ccccc1 (stereo not given) | 96.6 | > 100 | 50.5 | 31.7 | 38.9 | > 100 µM | 97.4 | 41 µM | 76.8 | 87 µM | – | – | – | – | – | – | – | – | – | –
Cc1ccc2nc(NC(=O)C(=O)C(C(=O)c3ccc4ccccc4c3)C3OC(=O)c4ccccc43)sc2c1 (stereo not given) | 34.6 | 44.3 | – | 26.3 | 62.1 | 21 µM | – | 22.9 µM | 15.5 | 28.6 µM | – | – | – | – | – | – | – | – | – | –
CC(=O)NNc1nc(C)c(C(=O)NNC(=O)C(=O)Nc2ccc(Cl)c([N+](=O)[O-])c2)s1 | > 100 | > 100 | 74.4 | 79.5 | > 100 | > 100 µM | – | > 100 µM | > 100 | > 100 µM | – | – | – | – | – | – | – | – | – | –
C=C1CCC2CC1C(C(=O)c1c[nH]c3ccccc13)=NC2(C)C (stereo not given) | > 100 | > 100 | > 100 | > 100 | > 100 | – | > 100 | > 100 µM | > 100 | > 100 µM | – | – | – | – | – | – | – | – | – | –
COc1cc(/C=C/C(=O)c2cccc3ccccc23)cc(OC)c1OC | – | 43.4 | 14.1 | – | 4.58 | 22.2 µM | 23.3 | 7.32 µM | 18.8 | 30.5 µM | – | – | – | – | – | – | – | – | – | –
COC(=O)C(=O)C(CC(=O)Nc1cc(Cl)ccc1Cl)C(=O)OC (stereo not given) | > 100 | > 100 | > 100 | > 100 | > 100 | > 100 µM | > 100 | > 100 µM | > 100 | > 100 µM | – | – | – | – | – | – | – | – | – | –
Cc1cc(F)c(C(=O)Nc2cccc(-c3nncn3C(C)C)n2)cc1-n1cnc(C2CC2)c1 | 21.3 | 61.7 | – | 44.1 | 68 | 80.9 µM | 64.3 | > 100 µM | > 100 | 23.7 µM | 4.2 | – | 8.56 | 18.3 | 13.3 | 10.3 | 20.8 | 17.1 | 3.05 | 6.89
O=C(NCCCCCCCCCCCCNC(=O)c1cnc2ccccc2n1)c1cnc2ccccc2n1 | > 100 | > 100 | > 100 | > 100 | > 100 | > 100 µM | 49.3 | > 100 µM | > 100 | 86.1 µM | – | – | – | – | – | – | – | – | – | –
